Test results reported in patent US20060293343A1, “Pyrimidine derivatives” (Asahi Kasei Pharma Corporation, priority 2005, published 2006).
Read-outs that look alike come from different tables or passages of the source.

Legend:
[1] = test system: T1, PDE4; assay: Inhibitory action of PDE4 enzyme activity (PDE4 purified from U937 cells); assay type: biochemical; settings: PDE4 fraction purified from U937 cells; [3H]-cAMP substrate; 30° C., 10 minutes
T1 construct: The PDE4 enzyme was purified from U937 cells that are the cells derived from lymphoma
Protocol: (1) Purification of PDE4 from U937 Cells
The PDE4 enzyme was purified from U937 cells that are the cells derived from lymphoma. U937 cells were suspended in buffer solution A (20 mM Tris-HCl(pH 6.5), 1 mM MgCl2, 0.1 mM EGTA, 3 mM 2-mercaptoethanol) containing protease. inhibitor cocktail (manufactured by Sigma Co.), and a soluble fraction was obtained by centrifugation after ultrasonic disintegration (100,000 G, 30 minutes, 4° C.). […] Each fraction was tested for the cAMP metabolized PDE activity to identify the fractions containing PDE4 enzyme.
(2) Measurement of Inhibitory Activity of PDE4 Enzyme Activity
A desired concentration of the test compound was allowed to react in a reaction mixture (100 μL; 40 mM Tris-HCl (pH 7.4), 5 MM MgCl2, 4 mM 2-mercaptoethanol, […] cAMP, 0.83 μCi [^3H]-cAMP and PDE4 fraction) at 30° C. for 10 minutes. The enzyme reaction was stopped by adding 25 μL of trichloroacetic acid to the reaction mixture. The reaction solution was charged on a neutral alumina column equilibrated with 0.1 M of 2-[[tris(hydroxylmethyl)methyl]-amino]-1-ethanesulfonic acid (TES) buffer (pH 8.0) and, after washing the column with a sufficient amount of 0.1 M TES buffer solution, the column was eluted with 2N NaOH. A 500 μL aliquot of the eluate containing [^3H]-5′AMP product was filled in a scintillation vial containing the scintillation cocktail (5 ml, manufactured by Perkin Elmer Co.) to measure radioactivity. […] The inhibitory action of PDE4 enzyme activity was expressed by IC50 (nM). Ex. No. in Table 8 denotes the example No.

[2] = test system: TNF-α production in LPS-stimulated mouse mononuclear cells; assay: Inhibitory action of TNF-α production using mouse mononuclear cells (in vitro); assay type: cell-based; settings: mouse mononuclear cells from peripheral blood of C3H/He mouse; LPS 5 μg/mL, 21 hours; TNF-α ELISA; read-out: IC50 (nM), suppression action of TNF-α production
Protocol: Mouse mononuclear cells were isolated from the peripheral blood of C3H/He mouse (manufactured by Japan SLC Co., male), and were suspended in a culture medium (trade name RPMI 1640 manufactured by Gibco Co.) containing 10% bovine serum. The cells were seeded in a 96 well plate as 50,000 cells/well, the test compound was added at a desired concentration, and the plate was allowed to stand in an incubator containing 5% CO2 at .37° C. for 15 minutes. LPS was added thereafter at a final concentration of 5 μg/mL, and the plate was allowed to stand in the incubator for 21 hours.
The culture medium containing produced TNF-α was retrieved, and the amount of TNF-α was measured according to the protocol attached to mouse TNF-α ELISA kit (manufactured by R & D Systems Co.). […] The suppression action of TNF-α was expressed-by […] (nM). Ex. No. in Table 9 denotes the example No.

[3] = test system: rabbit gastric gland cells; assay: Action on gastric acid secretion ability (in vitro), 14C-aminopyrine uptake in gastric gland cells; assay type: cell-based; settings: Oryctolagus cuniculus, histamine 0.3 to 1.0 μM
Protocol: Gastric acid secretion ability (as an index of the side effect) was tested according to the methods by BergLindh and Obrink (Acta Physiol. Scand. 97:401-414, 1976) and Sack and Speney (Am. J. Physiol. 243:G313-G319, 1982).
Gastric gland cells were prepared by collagenase treatment using male rabbit (Japanese white strain, manufactured by Oriental Yeast Co.).
The test compound, ^14C-aminopyrine (1.0 nmol/mL; 0.1 μCi/nmol) and histamine (0.3 to 1.0 μM) were incubated for a given time period, and gastric gland cell pellets obtained after centrifugation and washing were lysed with 100 μL of 1N-KOH. The lysate was filled in a scintillation vial containing a scintillation cocktail (manufactured by Perkin Elmer Co.) to measure the radioactivity. The gastric acid secretion action by the test compound was calculated as EC50, and the ratio of the activity relative to IC50 of suppression of TNF-α production described in Test Example 2 (degree of dissociation A) was determined from the following equation. The larger degree of dissociation A is more preferable. The results in Table 10 represent that secretion of the gastric acid ability(EC50) was lower activity in the compound of the invention, salts thereof or prodrugs thereof as compared with the suppression effect of TNF-α production(IC50). Ex. No. in Table 10 denotes the example No.
Degree of dissociation A=EC50 of gastric acid secretion ability/IC50 of suppression of TNF-α production

[4] = test system: TNF-α production induced by LPS; assay: Inhibitory action of TNF-α production (in vivo) induced by LPS using mouse
Protocol: C3H/He mouse (manufactured by Japan SLC Co., male) was used as a test animal. A desired concentration of the test sample was suspended in 0.5% methyl cellulose solution. The weight of the mouse was measured, and the test compound solution was orally administered at a dosage of 10 mL/kg while only 0.5% methyl cellulose was administered to the reference group. One group contained 5 to 7 mice. LPS was dissolved in physiological saline, and 10 μg was intraperitoneally administered to each mouse. The test compound was administered first, then LPS was administered 60 minutes thereafter. After 90 minutes, the blood was sampled from the large abdominal vein with the heparin, and a plasma was obtained by centrifugation. The content of TNF-α in the plasma was measured according to the protocol attached to TNF-α ELISA kit (manufactured by R & D System Co.). […] The suppression action of TNF-α production was represented by ED50 (mg/kg). Ex. No. in Table 11 denotes the example No.

[5] = test system: C3H/He mouse; assay: Gastric emptying test of mouse (in vivo); settings: oral, test meal 60 minutes after compound
Protocol: C3H/He mouse (manufactured by Japan SLC Co., male) fasted for 21 to 24 hours but allowed free access to water, was used as an experimental animal. A desired concentration of the test sample was suspended in 0.5% methyl cellulose solution. The weight of the mouse was measured, and the test compound solution was orally administered at a dosage of 10 mL/kg while only 0.5% methyl cellulose solution was administered to the reference group. One group contained 5 mice. A 1.5% methyl cellulose solution containing 0.05% phenol, red was used as a test meal solution. The test compound was administered, and 0.2 ml of the test meal was orally administered at 60 minutes thereafter. […] A 10% trichloroacetic acid solution (0.5 mL) was added to 5 mL of the supernatant, which was further centrifuged to remove proteins. A solution prepared by adding 125 μL of 2 N NaOH to the supernatant (1 mL) obtained by centrifugation was measured with a spectrophotometer (550 nm), and inhibition of transfer from the stomach to the small intestine was expressed by IC50 (mg/kg).

[6] = test system: Marshall ferret; assay: Vomiting action using ferret; assay type: in vivo; settings: oral, observed for more than 6 hours
Protocol: Marshall ferret (male, weight 1 to 1.5 kg, manufactured by Charles River Laboratories Japan, Inc.) was used. A desired concentration of the test compound was suspended in 0.5% methyl cellulose solution. The weight of a ferret was measured, and the solution of the test compound was orally administered at a dosage of 1 to 8 ml/kg. Only 0.5% methyl cellulose solution was administered to the reference group. One group contained 4 animals.

[7] = C3H/He mouse, orally administered 60 minutes before LPS 10 μg intraperitoneally, plasma TNF-α 90 minutes after LPS, read-out: ED50 (mg/kg), suppression action of TNF-α production
[8] = mouse, oral, LPS 60 minutes after compound, plasma TNF-α after 90 minutes, read-out: suppression of TNF-α production ED50

SMILES | IC50 [1] [nM] | IC50 [2] [nM] | EC50 [3] [nM] | gastric emptying test IC50 (inhibition of transfer from the stomach to the small intestine) [5] [mg/kg] | ED50 [4, 7] [mg/kg] | ED50 [4, 8] [mg/kg] | incidence of vomiting by the ferret ([6]; dosage of 50 mg/kg) | incidence of vomiting by the ferret ([6]; dosage of 100 mg/kg)
CCc1c(C)nc(-c2ccc(Br)s2)nc1Nc1ccc(CC(=O)O)cc1 [Example 148] | – | 676 | 10100 | 85 | 12 | 12 | – | no incidence of vomiting
CCc1nc(-c2cccs2)nc(Nc2ccc(C(=O)O)cc2)c1CC [Example 83] | – | 46 | 169 | – | 22 | – | – | –
CCc1nc(-c2cccs2)nc(Nc2ccc(CC(=O)O)cc2)c1CC [Example 84] | – | 533 | 1660 | – | 17 | – | – | –
CCc1c(C)nc(-c2ccc(SC)s2)nc1Nc1ccc(CC(=O)O)cc1 [Example 78] | – | 171 | 38400 | – | – | – | – | –
CCc1nc(-c2ccsc2)nc(Nc2ccc(CC(=O)O)cc2)c1CC [Example 58] | – | 695 | 1310 | – | 8 | – | – | –

Second part, led by results:

IC50 [1] [nM] | IC50 [2] [nM] | EC50 [3] [nM] | gastric emptying test IC50 (inhibition of transfer from the stomach to the small intestine) [5] [mg/kg] | SMILES | ED50 [4, 7] [mg/kg] | ED50 [4, 8] [mg/kg] | incidence of vomiting by the ferret ([6]; dosage of 50 mg/kg) | incidence of vomiting by the ferret ([6]; dosage of 100 mg/kg)
9 | 24 | 1690 | 14 | C=CCc1c(CC)nc(-c2ccsc2)nc1Nc1ccc2cc(C(=O)O)ccc2c1 [Example 17] | 3 | 3 | no incidence of vomiting | –
1680 | 202 | – | – | CCc1c(C)nc(-c2ccsc2)nc1Nc1ccc(C(=O)O)cc1 [Example 18] | 37 | – | – | –
41 | 69 | 227 | – | CCc1nc(-c2ccsc2)nc(Nc2ccc3cc(C(=O)O)ccc3c2)c1CC [Example 59] | 6 | – | – | –
– | 44 | 460 | – | CCc1nc(-c2ccsc2)nc(Nc2ccc(C(=O)O)cc2)c1CC [Example 57] | 24 | – | – | –
